Data on six molecules can be found in patent publication US20030229007A1, “Form of human renin and its use as a target in treatments for cardiac ischemia and arrhythmia” (priority 2002, published 2003).

Where a name gives a salt, the structure may show the parent alone. Square brackets hold non-standard residues; d marks the D form. Peptide text beside a SMILES is read from it. * marks the point of attachment. Sta = CC(C)C[C@H](N)[C@@H](O)CC(=O)O; Isovaleryl = CC(C)CC(=O)*

In experiment [1] the test system is human right atrial tissue. The experiment in a line: NE release from human right atrium incubated in ischemic conditions. The class given is cell-based. Particulars: 70 min ischemia. From the text:
Source of human cardiac tissue. Specimens of right atrium (i.e., surgical waste tissue) were obtained from 34 patients undergoing cardiopulmonary bypass [29 males and 5 females, age 64.9±1.6 years; coronary artery bypass grafting (CABG) 30, valve replacement 4], following a protocol approved by the Institutional Review Board. Eight of the 30 CABG patients were chronically treated with β-adrenoceptor blocking agents. […] All patients chronically treated with ACE inhibitors were excluded from the study. At the time of surgery, a piece of atrial appendage measuring ˜1 cm^3 was removed from the atriotomy site.
Incubation of atrial tissue. Atrial specimens were immediately transported to the laboratory in ice-cold oxygenated Krebs-Henseleit solution (KHS) of the following composition (mM): NaCl 118.2, KCl 4.83, CaCl2 2.5, MgSO4 2.37, KH2PO4 1.0, NaHCO3 25, and glucose 11.1. After removal of fat and connective tissue, specimens were divided into several fragments (each weighing 24.5±1.1 mg, wet weight, measured at the end of incubation). Each fragment was incubated for 15 min at 37° C. in 2 ml of KHS gassed with 95% O2 and 5% CO2 (Po2 ˜550 mm Hg, pH ˜7.4) containing the monoamine oxidase inhibitor pargyline (1 mM). Following the 15-min stabilization period, fragments were incubated for an additional 20 min in oxygenated KHS in the absence or presence of pharmacological agents. […]

Experiment [2] deals with human cardiac synaptosomes (sympathetic nerve endings). The experiment in a line: Ischemic NE release from synaptosomes isolated from human right atrium. The class given is cell-based. Particulars: 70 min ischemia. On the procedure:
(§1) Preparation of cardiac synaptosomes. Atrial specimens were freed from fat and connective tissue and minced in ice-cold 0.32 M sucrose containing 1 mM EGTA, pH 7.4, and 1 mM pargyline, to prevent enzymatic destruction of synaptosomal NE. Synaptosomes were isolated as previously described (Imamura et al., Circ. Res. 1995, 77:206-210). Briefly, minced tissue was digested with 120 mg collagenase (Type II, Worthington Biochemicals, Freehold, N.J.) per gm wet heart weight for 1 hr at 37° C. After low speed centrifugation (10 min at 120 g), the resulting pellet was suspended in 10 vol of 0.32 M sucrose and homogenized with a Teflon/glass homogenizer. The homogenate was spun at 650 g for 10 min and the pellet rehomogenized and respun. The pellet containing cellular debris was discarded, and the supernatants from the last two spins were combined and equally subdivided into 4 to 8 tubes and recentrifuged for 20 min at 20,000 g at 4° C. This pellet, which contained cardiac synaptosomes, was resuspended either in HEPES-buffered saline (HBS; 500 μl, normoxic conditions) or in glucose-free HBS which contained the reducing agent sodium dithionite (500 μl, ischemic conditions), and incubated in the absence or presence of angiotensinogen (for 1 hour) or other pharmacological agents for 20 min in a water bath at 37° C. prior to ischemia (see below). HBS contained 50 mM HEPES, pH 7.4, 144 mM NaCl, 5 mM KCl, 1.2 mM CaCl2, 1.2 mM MgCl2, 10 mM glucose. Each suspension functioned as an independent sample and was used only once. In every experiment, one sample was untreated (control, basal NE release).
Induction of ischemia. Ischemia was induced by incubating either atrial fragments or synaptosomes for 70 min in glucose-free KHS (atrial tissue) or HBS (synaptosomes) bubbled with 95% N2 and 5% CO2, containing the reducing agent sodium dithionite (3 mM; PO2 ˜0 mm Hg, pH ˜7.3; ischemic NE release) (Hatta et al. J. Pharmacol Exp. Ther. 1997, 283:494-500). Matched control fragments and synaptosomes were incubated for an equivalent length of time with oxygenated KHS and HBS, respectively (normoxic NE release). When drugs were used, they were continued throughout the entire normoxic and ischemic periods.
Norepinephrine assay. Incubating media were assayed for NE by high pressure liquid chromatography with electrochemical detection (Hatta et al. J. Pharmacol Exp. Ther. 1997, 283:494-500). Perchloric acid and EDTA were added to samples to achieve final concentrations of 0.01 N and 0.025%, respectively. The NE present in the effluent was adsorbed on acid-washed alumina adjusted at pH 8.6 with Tris-2% EDTA buffer, and then extracted into 150 μl of 0.1 N perchloric acid. These final sample aliquots were injected onto a 3 μm ODS reverse-phase column (3.2×100 mm, Bioanalytical System, West Lafayette, Ind.) with an applied potential of 0.65 V. The mobile phase consisted of monochloroacetic acid (75 mM), sodium EDTA (0.5 mM), sodium octylsulfate (0.5 mM) and acetonitrile (1.5%) at pH 3.0. The flow rate was 1.0 ml/min. No NE breakdown occurred during the 70-min ischemic period. Dihydroxybenzylamine was added to each sample as an internal standard prior to alumina extraction and used for calculation of the recovery during the extraction procedure. This recovery was 77% or better. The detection limit was approximately 0.2 pmol.

Experiment [3] shares this test system. The experiment in a line: Ischemic NE release from human cardiac synaptosomes incubated with angiotensinogen. Particulars: for effect on angiotensinogen-induced increase in ischemic NE release: angiotensinogen 400 nM. The experiment is classed as cell-based. On the procedure:
as §1
Induction of ischemia. Ischemia was induced by incubating either atrial fragments or synaptosomes for 70 min in glucose-free KHS (atrial tissue) or HBS (synaptosomes) bubbled with 95% N2 and 5% CO2, containing the reducing agent sodium dithionite (3 mM; PO2 ˜0 mm Hg, pH ˜7.3; ischemic NE release) (Hatta et al. J. Pharmacol Exp. Ther. 1997, 283:494-500). […]

Experiment [4] has as its system human right atrial tissue. Particulars: as previously reported (Hatta et al. 1997); cited from earlier work.

Consider `CC(C)C[C@H](O)[C@H](O)[C@H](CC1CCCCC1)NC(=O)[C@@H](CC(=O)N(CC(=O)N(C)CCc1ccccn1)CC1CCCCC1)Cc1csc(N)n1` [BILA 2157BS], for which, in experiment [1] (30 nM), the “decrease in NE release” value was approximately 60%. Also, in experiment [2] (100 nM), the “suppression of the enhancement in NE release elicited by ischemia” value is recorded as approximately 70%. For the same molecule, in experiment [3] (100 nM), the “effect on angiotensinogen-induced increase in ischemic NE release” value is “prevented”.

In the case of `CNCCCN1c2ccccc2CCc2ccccc21` [DMI, desipramine hydrochloride], the inhibition at 0.3 µM in experiment [2] (Homo sapiens, 70 min, 300 nM) is approximately 50%. Further, in experiment [4], the “effect on ischemic NE release from atrial tissue” value is given as “inhibited”.

Turning to `CCN(c1nc(N)c(C(=O)N=C(N)N)nc1Cl)C(C)C` [EIPA, 5-(N-ethyl-N-isopropyl)-amiloride], the “inhibition of ischemic NE release” value in experiment [2] (30 μM) was approximately 50%.

On to `C[C@H](N[C@@H](CCc1ccccc1)C(=O)O)C(=O)N1CCC[C@H]1C(=O)O` [enalaprilat, Enalaprilat], for which the “reduction of the increase in NE release caused by ischemia” value in experiment [2] (3 μM) is given as approximately 80%. Moreover, the “effect on angiotensinogen-induced increase in ischemic NE release” value in experiment [3] (3 μM) is recorded as “prevented”.

On to `CC(C)CC(=O)N[C@H](C(=O)N[C@H](C(=O)N[C@@H](CC(C)C)[C@@H](O)CC(=O)N[C@@H](C)C(=O)N[C@@H](CC(C)C)[C@@H](O)CC(=O)O)C(C)C)C(C)C` [pepstatin-A] (Isovaleryl-VV[Sta]A[Sta]-OH), for which the “decrease in NE release” value in experiment [1] (30 μM) was approximately 70%. Further, the “suppression of the enhancement in NE release elicited by ischemia” value in experiment [2] (30 μM) is given as approximately 70%.

B1: angiotensinogen: Human plasma angiotensinogen, renin substrate, purchased from Sigma-Aldrich (protein, UniProt P01019 25-476, looked up)
Angiotensinogen: DRVYIHPFHLVIHNESTCEQLAKANAGKPKDPTFIPAPIQAKTSPVDEKALQDQLVLVAAKLDTEDKLRAAMVGMLANFLGFRIYGMHSELWGVVHGATVLSPTAVFGTLASLYLGALDHTADRLQAILGVPWKDKNCTSRLDAHKVLSALQAVQGLLVAQGRADSQAQLLLSTVVGVFTAPGLHLKQPFVQGLALYTPVVLPRSLDFTELDVAAEKIDRFMQAVTGWKTGCSLMGASVDSTLAFNTYVHFQGKMKGFSLLAEPQEFWVDNSTSVSVPMLSGMGTFQHWSDIQDNFSVTQVPFTESACLLLIQPHYASDLDKVEGLTFQQNSLNWMKKLSPRTIHLTMPQLVLQGSYDLQDLLAQAELPAILHTELNLQKLSNDRIRVGEVLNSIFFELEADEREPTESTQQLNKPEVLEVTLNRPFLFAVYDQSATALHFLGRVANPLSTA
As for B1, the “increase in ischemic NE release” value in experiment [3] (400 nM angiotensinogen, 70 min ischemia) is recorded as approximately 70%.

A word on the inhibition: it is the percentage by which the read-out fell short of the control. Read a high inhibition as a strong effect.
